From patent US7897602B2, “Indolinone compounds as kinase inhibitors” (Development Center for Biotechnology, priority 2009, dated 2011)

How the values were obtained:
Type in all cases: biochemical
[1] = target: T1, Flt3 kinase (Homo sapiens, UniProt P36888); assay: Flt3 kinase assay (33P incorporation into Poly(Glu-Tyr)); details: 100 nM test compound; read-out: Inhibition at 100 nM (%) Flt-3
T1 construct: recombinant N-terminal 6×His-tagged Flt3 kinase domain construct expressed from baculovirus; 6xHis (N); made in house
T1 sequence (P36888 610-943 limits assumed): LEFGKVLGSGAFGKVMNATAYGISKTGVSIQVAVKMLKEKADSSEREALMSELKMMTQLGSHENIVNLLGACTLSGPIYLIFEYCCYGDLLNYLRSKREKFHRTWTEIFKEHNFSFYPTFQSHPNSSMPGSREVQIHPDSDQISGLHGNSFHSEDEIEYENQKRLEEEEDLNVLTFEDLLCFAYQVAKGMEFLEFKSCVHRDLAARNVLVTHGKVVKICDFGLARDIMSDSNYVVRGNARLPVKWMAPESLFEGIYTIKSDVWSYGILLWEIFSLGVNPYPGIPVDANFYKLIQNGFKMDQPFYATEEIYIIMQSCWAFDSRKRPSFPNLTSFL
Procedure, shortened: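 Baculovirus-expressed His-tagged Flt3 kinase domain (5 ng) with Poly(Glu-Tyr) 4:1 substrate, 100 μM ATP plus [33P]-γ-ATP, in MOPS pH 7.0 buffer, 30 min at 30 °C. Compound tested at a single 100 nM concentration; filter-bound radioactivity counted and percent inhibition calculated relative to DMSO control.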

[2] = target: T2, VEGFR2 kinase (Homo sapiens, UniProt P35968); assay: VEGFR2 kinase assay (33P incorporation into Poly(Glu-Tyr)); details: 500 nM test compound; read-out: Inhibition at 500 nM (%) VEGFr-2
T2 construct: recombinant N-terminal 6×His-tagged VEGFR2 kinase domain construct expressed by baculovirus; 6xHis (N); made in house
T2 sequence (P35968 834-1162 limits assumed): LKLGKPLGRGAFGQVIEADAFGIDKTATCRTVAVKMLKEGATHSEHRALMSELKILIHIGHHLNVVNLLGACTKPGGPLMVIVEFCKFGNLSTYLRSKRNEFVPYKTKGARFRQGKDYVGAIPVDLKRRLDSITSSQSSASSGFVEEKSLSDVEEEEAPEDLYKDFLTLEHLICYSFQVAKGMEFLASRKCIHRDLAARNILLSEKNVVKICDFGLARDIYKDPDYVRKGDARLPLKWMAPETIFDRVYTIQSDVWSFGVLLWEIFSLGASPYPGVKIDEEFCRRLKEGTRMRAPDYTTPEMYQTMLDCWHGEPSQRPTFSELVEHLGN
Procedure, shortened: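 Recombinant baculovirus-expressed N-terminal His6-tagged VEGFR2 kinase domain (6.25 ng) phosphorylated poly(Glu-Tyr) 4:1 with 100 μM ATP plus [33P]-γ-ATP in MOPS pH 7.0, 30 °C, 30 min. Test compound was at 500 nM (4% DMSO). Filter-retained radioactivity relative to DMSO control gave % inhibition.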

[3] = target: T3, Aurora B kinase (Homo sapiens, UniProt Q96GD4); assay: Aurora B kinase assay ([γ-33P]ATP, CHOCKtide substrate); details: for inhibition at 1 µM: 1.0 μM test compound
T3 construct: purchased Cell signaling
T3 sequence (Q96GD4 whole entry): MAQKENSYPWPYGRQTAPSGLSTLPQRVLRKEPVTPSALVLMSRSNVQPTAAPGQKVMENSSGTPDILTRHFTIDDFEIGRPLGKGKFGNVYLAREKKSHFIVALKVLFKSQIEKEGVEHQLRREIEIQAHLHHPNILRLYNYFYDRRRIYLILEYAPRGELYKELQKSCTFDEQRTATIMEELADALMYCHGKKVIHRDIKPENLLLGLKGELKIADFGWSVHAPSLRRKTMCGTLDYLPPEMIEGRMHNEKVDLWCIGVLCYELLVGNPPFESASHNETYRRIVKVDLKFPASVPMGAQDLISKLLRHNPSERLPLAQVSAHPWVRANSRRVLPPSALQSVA
Procedure, shortened: (§1)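 Radiometric filter-binding format: 33P incorporation into CHOCKtide counted after acid stop and filtration. Reactions ran 30 min at 33 °C, Aurora A with 10 μM ATP, Aurora B with 40 μM ATP. IC50 taken as concentration giving half-maximal kinase inhibition.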

[4] = target: T4, Aurora A kinase (Homo sapiens, UniProt O14965); assay: Aurora A kinase assay ([γ-33P]ATP, CHOCKtide substrate); details: for inhibition at 1 µM: 1.0 μM test compound
T4 construct: purchased Upstate
T4 sequence (O14965 1-403): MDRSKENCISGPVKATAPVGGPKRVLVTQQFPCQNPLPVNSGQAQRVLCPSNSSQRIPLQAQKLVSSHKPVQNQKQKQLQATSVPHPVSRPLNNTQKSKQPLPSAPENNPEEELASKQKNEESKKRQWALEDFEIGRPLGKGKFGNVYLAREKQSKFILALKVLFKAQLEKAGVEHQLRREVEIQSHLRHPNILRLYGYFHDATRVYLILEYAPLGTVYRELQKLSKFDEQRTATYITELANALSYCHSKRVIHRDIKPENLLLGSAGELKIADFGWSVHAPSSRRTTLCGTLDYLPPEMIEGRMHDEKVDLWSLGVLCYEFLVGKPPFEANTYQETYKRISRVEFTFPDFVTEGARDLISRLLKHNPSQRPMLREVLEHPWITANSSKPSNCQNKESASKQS
Procedure, shortened: as §1

| Compound | inhibition at 0.1 µM [1] [%] | inhibition at 0.5 µM [2] [%] | inhibition at 1 µM [3] [%] | inhibition at 1 µM [4] [%] | IC50 [3] [nM] | IC50 [4] [nM] |
| --- | --- | --- | --- | --- | --- | --- |
| O=C(O)CCc1c(C=C2C(=S)Nc3ccccc32)[nH]c2c1C(=O)CCC2 [DCB-70084, 3-((3-carboxyethyl-4-oxo-4,5,6,7-tetrahydro-1H-indol-2-yl)methylene)indolin-2-thione] | -2.6 | 13.4 | 17.9 | 10.9 | – | – |
| O=C(O)CCc1c(/C=C2\C(=O)Nc3ccc(S(=O)(=O)N4CCCC4)cc32)[nH]c2c1C(=O)CCC2 [DCB-70087, (Z)-5-(pyrrolidin-1-ylsulfonyl)-3-((3-carboxyethyl-4-oxo-4,5,6,7-tetrahydro-1H-indol-2-yl)methylene)indolin-2-one] | 1.4 | 26.3 | 66.2 | 99.7 | 441 | 7.3 |
| CCOC(=O)CCc1c(/C=C2\C(=O)Nc3ccc(NC(=O)Nc4ccc(C)cc4)cc32)[nH]c2c1C(=O)CCC2 [DCB-70091, (Z)-5-(3-p-tolylureido)-3-((3-(3-ethoxy-3-oxopropyl)-4-oxo-4,5,6,7-tetrahydro-1H-indol-2-yl)methylene)indolin-2-one] | 11.1 | 24.6 | 10.8 | 7.6 | – | – |
| CCOC(=O)CCc1c(/C=C2\C(=O)Nc3ccc(NC(=O)Nc4ccc(OC)cc4)cc32)[nH]c2c1C(=O)CCC2 [DCB-70092, (Z)-5-(3-(4-methoxyphenyl)ureido)-3-((3-(3-ethoxy-3-oxopropyl)-4-oxo-4,5,6,7-tetrahydro-1H-indol-2-yl)methylene)indolin-2-one] | 22.5 | 30.2 | 9.9 | 9.4 | – | – |
| COc1ccc(NC(=O)Nc2ccc3c(c2)/C(=C/c2[nH]c4c(c2CCC(=O)O)C(=O)CCC4)C(=O)N3)cc1 [DCB-70094, (Z)-5-(3-(4-methoxyphenyl)ureido)-3-((3-carboxyethyl-4-oxo-4,5,6,7-tetrahydro-1H-indol-2-yl)methylene)indolin-2-one] | 52.8 | 79.8 | 15.5 | 75.2 | – | – |
| NS(=O)(=O)c1ccc2c(c1)/C(=C/c1[nH]c3c(c1CCC(=O)O)C(=O)CCC3)C(=O)N2 [DCB-70095, (Z)-5-sulfamoyl-3-((3-carboxyethyl-4-oxo-4,5,6,7-tetrahydro-1H-indol-2-yl)methylene)indolin-2-one] | 27.2 | 64.4 | 34.1 | 94.3 | – | 61.2 |
| CCOC(=O)CCc1c(/C=C2\C(=O)Nc3ccc(NC(=O)c4ccccc4)cc32)[nH]c2c1C(=O)CCC2 [DCB-70096, (Z)-5-benazmido-3-((3-(3-ethoxy-3-oxopropyl)-4-oxo-4,5,6,7-tetrahydro-1H-indol-2-yl)methylene)indolin-2-one] | 5.9 | 44.2 | 15.1 | 38.6 | – | – |
| O=C(O)CCc1c(/C=C2\C(=O)Nc3ccc(NC(=O)c4ccccc4)cc32)[nH]c2c1C(=O)CCC2 [DCB-70097, (Z)-5-benazmido-3-((3-carboxyethyl-4-oxo-4,5,6,7-tetrahydro-1H-indol-2-yl)methylene)indolin-2-one] | 2 | 62.5 | 14.2 | 64.7 | – | – |
| O=C(O)CCc1c(/C=C2\C(=O)Nc3cc(-c4ccc(F)cc4)ccc32)[nH]c2c1C(=O)CCC2 [DCB-70099, (Z)-6-(4-fluorophenyl)-3-((3-carboxyethyl-4-oxo-4,5,6,7-tetrahydro-1H-indol-2-yl)methylene)indolin-2-one] | 6.9 | 79 | 30 | 47.5 | – | – |
| O=C(O)CCc1c(/C=C2\C(=O)Nc3cc(-c4cc(F)cc(F)c4)ccc32)[nH]c2c1C(=O)CCC2 [DCB-70101, (Z)-6-(3,5-difluorophenyl)-3-((3-carboxyethyl-4-oxo-4,5,6,7-tetrahydro-1H-indol-2-yl)methylene)indolin-2-one] | 8.5 | 73.8 | 17.7 | 38.5 | – | – |
| O=C(O)CCc1c(/C=C2\C(=O)Nc3ccc(NS(=O)(=O)c4ccccc4)cc32)[nH]c2c1C(=O)CCC2 [DCB-70103, (Z)-5-phenylsulfonamido-3-((3-carboxyethyl-4-oxo-4,5,6,7-tetrahydro-1H-indol-2-yl)methylene)indolin-2-one] | 44.7 | 88.3 | 80.1 | 98.9 | 156 | 12.3 |

Results, then the compound that gave them:

| inhibition at 0.1 µM [1] [%] | inhibition at 0.5 µM [2] [%] | inhibition at 1 µM [3] [%] | inhibition at 1 µM [4] [%] | IC50 [3] [nM] | IC50 [4] [nM] | Compound |
| --- | --- | --- | --- | --- | --- | --- |
| 16 | 23.3 | 12.8 | 13.2 | – | – | CCOC(=O)CCc1c(C=C2C(=S)Nc3ccccc32)[nH]c2c1C(=O)CCC2 [DCB-70083, 3-((3-(3-ethoxy-3-oxopropyl)-4-oxo-4,5,6,7-tetrahydro-1H-indol-2-yl)methylene)indolin-2-thione] |
| 18.2 | 25.4 | 10.7 | 11.2 | – | – | CCOC(=O)CCc1c(C=C2C(=S)Nc3cc(Br)ccc32)[nH]c2c1C(=O)CCC2 [DCB-70085, 6-bromo-3-((3-(3-ethoxy-3-oxopropyl)-4-oxo-4,5,6,7-tetrahydro-1H-indol-2-yl)methylene)indolin-2-thione] |
| 0.5 | 21.9 | 17.8 | 5.8 | – | – | O=C(O)CCc1c(C=C2C(=S)Nc3cc(Br)ccc32)[nH]c2c1C(=O)CCC2 [DCB-70086, 6-bromo-3-((3-carboxyethyl-4-oxo-4,5,6,7-tetrahydro-1H-indol-2-yl)methylene)indolin-2-thione] |
| -2.1 | 17.2 | 48.8 | 99.3 | 1870 | 28.8 | O=C(O)CCc1c(/C=C2\C(=O)Nc3ccc(S(=O)(=O)N4CCOCC4)cc32)[nH]c2c1C(=O)CCC2 [DCB-70088, (Z)-5-morpholinosulfonyl-3-((3-carboxyethyl-4-oxo-4,5,6,7-tetrahydro-1H-indol-2-yl)methylene)indolin-2-one] |
| 44.7 | 70.1 | 14.7 | 70.5 | – | – | Cc1ccc(NC(=O)Nc2ccc3c(c2)/C(=C/c2[nH]c4c(c2CCC(=O)O)C(=O)CCC4)C(=O)N3)cc1 [DCB-70093, (Z)-5-(3-p-tolylureido)-3-((3-carboxyethyl-4-oxo-4,5,6,7-tetrahydro-1H-indol-2-yl)methylene)indolin-2-one] |
| 4.8 | 20.4 | 19.5 | 4 | – | – | CCOC(=O)CCc1c(/C=C2\C(=O)Nc3cc(-c4ccc(F)cc4)ccc32)[nH]c2c1C(=O)CCC2 [DCB-70098, (Z)-6-(4-fluorophenyl)-3-((3-(3-ethoxy-3-oxopropyl)-4-oxo-4,5,6,7-tetrahydro-1H-indol-2-yl)methylene)indolin-2-one] |
| 12.5 | 17.7 | 13.2 | 9.9 | – | – | CCOC(=O)CCc1c(/C=C2\C(=O)Nc3cc(-c4cc(F)cc(F)c4)ccc32)[nH]c2c1C(=O)CCC2 [DCB-70100, (Z)-6-(3,5-difluorophenyl)-3-((3-(3-ethoxy-3-oxopropyl)-4-oxo-4,5,6,7-tetrahydro-1H-indol-2-yl)methylene)indolin-2-one] |
| 75.9 | 68 | 74.3 | 88.8 | 214 | 83.5 | CCOC(=O)CCc1c(/C=C2\C(=O)Nc3ccc(NS(=O)(=O)c4ccccc4)cc32)[nH]c2c1C(=O)CCC2 [DCB-70102, (Z)-5-phenylsulfonamido-3-((3-(3-ethoxy-3-oxopropyl)-4-oxo-4,5,6,7-tetrahydro-1H-indol-2-yl)methylene)indolin-2-one] |
